One experiment relates to HeLa. Kind of experiment: Cytotoxicity against human HeLa cells. As to conditions: Homo sapiens, HeLa. Format: functional, cell-based.
Experiment [1] is described as follows: Cytotoxicity against human Fem-X cells. Format: functional, cell-based. As to conditions: Homo sapiens, Fem-X.

Take `CCCNC(=O)CC[C@@H](C)[C@H]1CC[C@H]2[C@@H]3CC[C@@H]4C[C@]5(CC[C@]4(C)[C@H]3C[C@H](OC(C)=O)[C@]12C)OO[C@@]1(CC[C@@]2(C)[C@H](CC[C@@H]3[C@@H]2C[C@H](OC(C)=O)[C@]2(C)[C@@H]([C@H](C)CCC(=O)NCCC)CC[C@@H]32)C1)OO5`: the figures for the IC50 (in the experiment with HeLa (read-out: pIC50 (converted)); in experiment [1] (read-out: pIC50 (converted))) were 33.1 µM and 22.9 µM, respectively.
Take `COC(=O)CC[C@@H](C)[C@H]1CC[C@H]2[C@@H]3CC[C@@H]4CC5(CC[C@]4(C)[C@H]3C[C@H](OC(C)=O)[C@]12C)OOC1(CCC2(CCCC2)CC1)OO5`: the IC50 in the experiment with HeLa (read-out: pIC50 (converted)) was 10.7 µM; in experiment [1] (read-out: pIC50 (converted)), 42.7 µM.
The matching figures for `COC(=O)CC[C@@H](C)[C@H]1CC[C@H]2[C@@H]3CC[C@@H]4CC5(CC[C@]4(C)[C@H]3C[C@H](OC(C)=O)[C@]12C)OOC1(CCC2(CCCCCCC2)CC1)OO5`: 10.2 µM and 51.3 µM.
The matching figures for `CCCN(CCC)C(=O)CC[C@@H](C)[C@H]1CC[C@H]2[C@@H]3CC[C@@H]4C[C@]5(CC[C@]4(C)[C@H]3C[C@H](OC(C)=O)[C@]12C)OO[C@@]1(CC[C@@]2(C)[C@H](CC[C@@H]3[C@@H]2C[C@H](OC(C)=O)[C@]2(C)[C@@H]([C@H](C)CCC(=O)N(CCC)CCC)CC[C@@H]32)C1)OO5`: 105 µM and 47.9 µM.
The corresponding values for `CC(=O)O[C@H]1C[C@H]2[C@@H](CC[C@@H]3C[C@]4(CC[C@@]32C)OO[C@@]2(CC[C@@]3(C)[C@H](CC[C@@H]5[C@@H]3C[C@H](OC(C)=O)[C@]3(C)[C@@H]([C@H](C)CCC(=O)N6CCCCC6)CC[C@@H]53)C2)OO4)[C@@H]2CC[C@H]([C@H](C)CCC(=O)N3CCCCC3)[C@@]12C` are 89.1 µM and 79.4 µM.
As to `CC(=O)O[C@H]1C[C@H]2[C@@H](CC[C@@H]3C[C@]4(CC[C@@]32C)OO[C@@]2(CC[C@@]3(C)[C@H](CC[C@@H]5[C@@H]3C[C@H](OC(C)=O)[C@]3(C)[C@@H]([C@H](C)CCC=O)CC[C@@H]53)C2)OO4)[C@@H]2CC[C@H]([C@H](C)CCC=O)[C@@]12C`, the figures for the IC50 (with HeLa (read-out: pIC50 (converted)); in experiment [1] (read-out: pIC50 (converted))) were 3.72 µM and 3.09 µM, respectively.
The corresponding values for `CC(=O)O[C@H]1C[C@H]2[C@@H](CC[C@@H]3C[C@]4(CC[C@@]32C)OO[C@@]2(CC[C@@]3(C)[C@H](CC[C@@H]5[C@@H]3C[C@H](OC(C)=O)[C@]3(C)[C@@H]([C@H](C)CCC(=O)O)CC[C@@H]53)C2)OO4)[C@@H]2CC[C@H]([C@H](C)CCC(=O)O)[C@@]12C` are 5.25 µM and 4.17 µM.
The matching figures for `COC(=O)CNC(=O)CC[C@@H](C)[C@H]1CC[C@H]2[C@@H]3CC[C@@H]4C[C@]5(CC[C@]4(C)[C@H]3C[C@H](OC(C)=O)[C@]12C)OO[C@]1(CC[C@@]2(C)[C@H](CC[C@@H]3[C@@H]2C[C@H](OC(C)=O)[C@]2(C)[C@@H]([C@H](C)CCC(=O)NCC(=O)OC)CC[C@@H]32)C1)OO5`: 3.63 µM and 4.68 µM.
The matching figures for `CC(=O)O[C@H]1C[C@H]2[C@@H](CC[C@@H]3C[C@]4(CC[C@@]32C)OO[C@]2(CC[C@@]3(C)[C@H](CC[C@@H]5[C@@H]3C[C@H](OC(C)=O)[C@]3(C)[C@@H]([C@H](C)CCC(=O)N6CCCCC6)CC[C@@H]53)C2)OO4)[C@@H]2CC[C@H]([C@H](C)CCC(=O)N3CCCCC3)[C@@]12C`: 120 µM and 102 µM.
On to `CC(=O)O[C@H]1C[C@H]2[C@@H](CC[C@@H]3C[C@]4(CC[C@@]32C)OO[C@]2(CC[C@@]3(C)[C@H](CC[C@@H]5[C@@H]3C[C@H](OC(C)=O)[C@]3(C)[C@@H]([C@H](C)CCC(N)=O)CC[C@@H]53)C2)OO4)[C@@H]2CC[C@H]([C@H](C)CCC(N)=O)[C@@]12C`, for which the figures for the IC50 (with HeLa (read-out: pIC50 (converted)); in experiment [1] (read-out: pIC50 (converted))) were 6.03 µM and 6.17 µM, respectively.
The matching figures for `CCCNC(=O)CC[C@@H](C)[C@H]1CC[C@H]2[C@@H]3CC[C@@H]4C[C@]5(CC[C@]4(C)[C@H]3C[C@H](OC(C)=O)[C@]12C)OO[C@]1(CC[C@@]2(C)[C@H](CC[C@@H]3[C@@H]2C[C@H](OC(C)=O)[C@]2(C)[C@@H]([C@H](C)CCC(=O)NCCC)CC[C@@H]32)C1)OO5`: 8.32 µM and 25.7 µM.
The matching figures for `CC(=O)O[C@H]1C[C@H]2[C@@H](CC[C@@H]3C[C@]4(CC[C@@]32C)OO[C@]2(CC[C@@]3(C)[C@H](CC[C@@H]5[C@@H]3C[C@H](OC(C)=O)[C@]3(C)[C@@H]([C@H](C)CCC(=O)O)CC[C@@H]53)C2)OO4)[C@@H]2CC[C@H]([C@H](C)CCC(=O)O)[C@@]12C`: 9.12 µM and 7.59 µM.
Consider `CCC1CCC2(CC1)OOC1(CC[C@@]3(C)[C@H](CC[C@@H]4[C@@H]3C[C@H](OC(C)=O)[C@]3(C)[C@@H]([C@H](C)CCC(N)=O)CC[C@@H]43)C1)OO2` (stereo partly drawn), for which the IC50 was 5.3 µM in the experiment with HeLa (read-out: IC50), 5.25 µM with HeLa (read-out: pIC50 (converted)), 4.3 µM in experiment [1] (read-out: IC50) and 5.01 µM in experiment [1] (read-out: pIC50 (converted)).
The matching figures for `CCC1CCC2(CC1)OOC1(CC[C@@]3(C)[C@H](CC[C@@H]4[C@@H]3C[C@H](OC(C)=O)[C@]3(C)[C@@H]([C@H](C)CCC(=O)NC)CC[C@@H]43)C1)OO2` (stereo partly drawn): 6.9 µM, 4.9 µM, 8.82 µM and 6.92 µM.
The corresponding values for `CCNC(=O)CC[C@@H](C)[C@H]1CC[C@H]2[C@@H]3CC[C@@H]4CC5(CC[C@]4(C)[C@H]3C[C@H](OC(C)=O)[C@]12C)OOC1(CCC(CC)CC1)OO5` (stereo partly drawn) are 6.7 µM, 6.92 µM, 7 µM and 6.76 µM.
The corresponding values for `CCC1CCC2(CC1)OOC1(CC[C@@]3(C)[C@H](CC[C@@H]4[C@@H]3C[C@H](OC(C)=O)[C@]3(C)[C@@H]([C@@H](C)CCC(N)=O)CC[C@@H]43)C1)OO2` (stereo partly drawn) are 4.9 µM, 4.07 µM, 4.5 µM and 4.27 µM.
With `CCC1CCC2(CC1)OOC1(CC[C@@]3(C)[C@H](CC[C@@H]4[C@@H]3C[C@H](OC(C)=O)[C@]3(C)[C@@H]([C@@H](C)CCC(=O)NC)CC[C@@H]43)C1)OO2` (stereo partly drawn), the IC50 in the experiment on HeLa (read-out: IC50) was 6.1 µM; in the experiment with HeLa (read-out: pIC50 (converted)), 6.76 µM; in experiment [1] (read-out: IC50), 5 µM; in experiment [1] (read-out: pIC50 (converted)), 4.47 µM.
The matching figures for `CCNC(=O)CC[C@H](C)[C@H]1CC[C@H]2[C@@H]3CC[C@@H]4CC5(CC[C@]4(C)[C@H]3C[C@H](OC(C)=O)[C@]12C)OOC1(CCC(CC)CC1)OO5` (stereo partly drawn): 6.9 µM, 6.92 µM, 6.7 µM and 8.91 µM.
